Data: patent US20050080055A1, “Method of treating breast cancer with androgen receptor antagonists” (priority 2003, published 2005)

Assays:
Experiment in all cases: Sulforhodamine B (SRB) cytotoxicity assay
Assay type in all cases: cell-based
[1] = system: PPC-1; details: Homo sapiens
Procedure: (§1) PPC-1, LNCaP, TSU, PC-3, and DU145 were grown in PRMI-1640 medium containing 2 mM L-glutamine supplemented with 10% fetal bovine serum (FBS). Cells were maintained in a 5% CO2/95% air humidified atmosphere at 37° C.
(§2) The SRB Assay was used to determine cell number during cytotoxocity experiments. The following protocol was used: • 1. Cells were detached with 0.25% trypsin. • 2. Experimental cultures were cultured in 96-well microtiter plates (200 uL growth medium per well; 1,000-200,000 cells per well). • 3. Cultures were fixed with 50 uL 50% TCA (4° C.). (see cell fixation protocol for details). • 4. Fixed cells were stained with 50 uL 0.4% (wt/vol) SRB in 1% acetic acid for 10 minutes. • 5. SRB was removed and the cultures were quickly* rinsed 5 times with 1% acetic acid to remove unbound dye.** * quickly performing rinsing process is to prevent desorption of protein-bound SRB ** completely remove residual wash solution by sharply flicking plates over sink. • 6. Cultures were air-dried overnight until there is no visible moisture. • 7. The cellular protein-bound SRB was dissolved with 200 uL unbuffered Tris base (10 mM, pH 10.5) for 30 minutes on a rocking platform shaker. • 8. Absorbance was read at 540 nm. Fixation of Cells Attached to the Plastic Substratum
(§3) The following protocol was used for fixing cells: • a. 50 uL of 50% TCA (4° C.) were gently layered on the top of growth medium in each well to make a final TCA concentration of 10%. • b. Cultures were incubated at 4° C. for 1 hour. • c. Cultures were washed 5 times with tap water to remove TCA, growth medium, low-molecular-weight metabolites, and serum protein. • d. Plates were air-dried until there was no visible moisture.
(§4) The IC50s of I-31, I-29, S-NTBA and Compound V in different prostate cancer cell lines (DU 145, PC-3, TSU, PPC-l and LNCaP), in a breast cancer cell line (MCF-7), in other cancer cell lines ([…]) and in a control cell line (CV-1) after 1 and 4 days of incubation with the drug, are shown in Tables 2A and B.

[2] = system: TSU; details: Homo sapiens, 96 h; drug incubation time 4 days
Procedure: as §1, §2, §3, §4

[3] = system: DU 145; details: Homo sapiens
Procedure: as §1, §2, §3, §4

[4] = system: LNCaP; details: Homo sapiens
Procedure: as §1, §2, §3, §4

[5] = system: PC-3; details: Homo sapiens
Procedure: as §1, §2, §3, §4

[6] = system: HT-29; details: Homo sapiens
[7] = system: MCF-7; details: Homo sapiens
Procedure: as §2
The following protocol was used for fixing cells: • a. 50 uL of 50% TCA (4° C.) were gently layered on the top of growth medium in each well to make a final TCA concentration of 10%. • b. Cultures were incubated at 4° C. for 1 hour. • c. […]

[8] = system: TCCSUP; details: Homo sapiens, TCC-SUP
[9] = 24 h, drug incubation time 1 day
[10] = 96 h, drug incubation time 4 days

With C[C@@](O)(CBr)C(=O)Nc1ccc([N+](=O)[O-])c(C(F)(F)F)c1 [S-NTBA] the IC50 ([1]; PPC-1, 24 h, drug incubation time 1 day) was 1.7 ± 0.2 µM, the IC50 ([1]; PPC-1, 96 h, drug incubation time 4 days) was 2.7 µM and the IC50 [2] was 2.9 µM. For the same compound, the IC50 ([3]; DU-145, 24 h, drug incubation time 1 day) was 5.5 ± 0.6 µM, the IC50 ([3]; DU-145, 96 h, drug incubation time 4 days) was 4.6 µM and the IC50 [4, 9] was 1.6 ± 0.5 µM. The IC50 [4, 10] was 1.8 µM, the IC50 ([5]; PC-3, 24 h, drug incubation time 1 day) was 7.9 ± 0.7 µM and the IC50 ([5]; PC-3, 96 h, drug incubation time 4 days) was 3.7 µM. The IC50 ([6]; HT-29, 24 h, drug incubation time 1 day) was 19.8 ± 1 µM, the IC50 ([6]; HT-29, 96 h, drug incubation time 4 days) was 10.8 µM and the IC50 ([7]; MCF7, 24 h, drug incubation time 1 day) was 3.3 ± 0.6 µM. It also gave an IC50 ([7]; MCF7, 96 h, drug incubation time 4 days) of 3.3 ± 0.6 µM, an IC50 [8, 9] of 9.5 ± 3.6 µM and an IC50 [8, 10] of 4.6 µM.
